Reference: US7651999B2, “2′, 5′-oligoadenylate analogs” (Sankyo Company, Limited, priority 2002, dated 2010)
pIC50: −log10 of the molar value. Where two headings read alike, the source gives them in different places.

System: Human lung cancer cell line A549 cells
Details: 72 hours, MTT, 0.001-10 μM tested
[1] = read-out: 50% Growth inhibitory concentrations of the subject compounds with respect to A549 cells, Experiment 2
[2] = read-out: 50% Growth inhibitory concentrations of the subject compounds with respect to A549 cells, Experiment 1
[3] = read-out: 50% Growth inhibitory concentrations of the subject compounds with respect to A549 cells, Experiment 3

Procedure: Human lung cancer cell line A549 cells were plated at a density of 800 cells/200 μl in a 96-well plate using RPMI1640 (Gibco BRL) (containing 10% Fetal Bovine Serum (Hyclone)) for the medium followed by culturing overnight in 5% CO2 at 37° C. Each 2-5A analog was added to each well so that the final concentration became 0.001-10 μM, followed by culturing for 72 hours (3 days) (n=3 or 4). After culturing for 72 hours (3 days), MTT (3-[4,5-dimethylthiazol-2-yl]-2,5-diphenyltetrazolium bromide) was added in 50 μl aliquots to each well at a MTT/RPMI1640 concentration of 5 mg/ml, followed by additionally culturing for 4 hours. After 4 hours, the medium was removed and 150 μl of dimethyl sulfoxide were added to each well. After shaking for 5 minutes, UV absorbance at 540 nm, was measured to determine the relative ratio of the number of viable cells of the compound dose group to the number of viable cells of an untreated cell group followed by calculation of the IC50 concentration that inhibits cell growth by 50%.

Row | Compound | pIC50 [1] | pIC50 [2] | pIC50 [3]
1 | CCCCCCCCCC(=O)OCCSP(=O)(O)OC[C@H]1O[C@@H](n2cnc3c(N)ncnc32)C(OP(=O)(O)OC[C@H]2O[C@@H](n3cnc4c(N)ncnc43)C(OP(=O)(O)OC[C@]34CCCOC3C(O)[C@H](n3cnc5c(N)ncnc53)O4)C2O)C1OC (some centres unmarked) [Example 17] | 6.46 |  | 
2 | COC1C(OP(=O)(O)OC[C@H]2O[C@@H](n3cnc4c(N)ncnc43)C(OP(=O)(O)OC[C@]34CCCOC3C(O)[C@H](n3cnc5c(N)ncnc53)O4)C2O)[C@H](n2cnc3c(N)ncnc32)O[C@@H]1COP(=O)(O)SCOC(=O)C(C)(C)C (some centres unmarked) [Example 5] | 6.49 | 6.40 | 
3 | COC1C(OP(=O)(O)OC[C@H]2O[C@@H](n3cnc4c(N)ncnc43)C(OP(=O)(O)OC[C@]34CCCOC3C(O)[C@H](n3cnc5c(N)ncnc53)O4)C2O)[C@H](n2cnc3c(N)ncnc32)O[C@@H]1COP(=O)(O)SCCOC(=O)C(C)(C)C (some centres unmarked) [Example 13] | 5.60 |  | 
4 | Nc1ncnc2c1ncn2[C@@H]1O[C@@]2(COP(=O)(O)OC3C(O)[C@@H](COP(=O)(S)OC4C(O)[C@@H](COP(=O)(O)S)O[C@H]4n4cnc5c(N)ncnc54)O[C@H]3n3cnc4c(N)ncnc43)CCCOC2C1O (some centres unmarked) [Example 8] |  | 5.65 | 
5 | CCCCCCCCCCCCCC(=O)OCCSP(=O)(O)OC[C@H]1O[C@@H](n2cnc3c(N)ncnc32)C(OP(=O)(O)OC[C@H]2O[C@@H](n3cnc4c(N)ncnc43)C(OP(=O)(O)OC[C@]34CCCOC3C(O)[C@H](n3cnc5c(N)ncnc53)O4)C2O)C1OC (some centres unmarked) [Example 16] | 7.05 |  | 
6 | COC1C(OP(=O)(O)OC[C@H]2O[C@@H](n3cnc4c(N)ncnc43)C(OP(=O)(O)OC[C@]34CCCOC3C(O)[C@H](n3cnc5c(N)ncnc53)O4)C2O)[C@H](n2cnc3c(N)ncnc32)O[C@@H]1COP(=O)(O)SCCO (some centres unmarked) [Example 33] |  |  | 5.67
7 | COC1C(OP(=O)(O)OC[C@H]2O[C@@H](n3cnc4c(N)ncnc43)C(OP(=O)(O)OC[C@]34CCCOC3C(O)[C@H](n3cnc5c(N)ncnc53)O4)C2O)[C@H](n2cnc3c(N)ncnc32)O[C@@H]1COP(O)(O)=S (some centres unmarked) [Example 2] | 6.04 | 5.82 | 
8 | COC1C(OP(=O)(O)OC[C@H]2O[C@@H](n3cnc4c(N)ncnc43)C(OP(=O)(O)OC[C@]34CCCOC3C(O)[C@H](n3cnc5c(N)ncnc53)O4)C2O)[C@H](n2cnc3c(N)ncnc32)O[C@@H]1COP(=O)(O)SCCOC(=O)c1ccccc1 (some centres unmarked) [Example 14] | 5.63 |  | 
9 | COC1C(OP(=O)(S)OC[C@H]2O[C@@H](n3cnc4c(N)ncnc43)C(OP(=O)(O)OC[C@]34CCCOC3C(O)[C@H](n3cnc5c(N)ncnc53)O4)C2O)[C@H](n2cnc3c(N)ncnc32)O[C@@H]1COP(=O)(O)SCOC(=O)C(C)(C)C (some centres unmarked) [Example 9] |  | 5.86 | 
10 | Nc1ncnc2c1ncn2[C@@H]1O[C@H](COP(O)(=S)OC2C(O)[C@@H](COP(O)(=S)OC3C(O)[C@@H](COP(O)(O)=S)O[C@H]3n3cnc4c(N)ncnc43)O[C@H]2n2cnc3c(N)ncnc32)C(O)C1O (some centres unmarked) [Example 4] | 6.21 | 6.32 | 6.42
